What was measured:
HMG-CoA reductase = target: T1, HMG-CoA reductase (Rattus norvegicus, UniProt P51639); assay: HMG CoA reductase activity in enzyme preparations (solubilized enzyme preparations from liver microsomes of cholestyramine-induced rats, 14C-HMG-CoA substrate); type: biochemical; conditions: solubilized rat liver microsomal enzyme; mean of 3 parallel samples; Table 1; read-out: IC50 for inhibition of HMG-CoA reductase
T1 construct: solubilized enzyme preparations from liver microsomes from rats; from tissue; host or cells: liver microsomes of cholestyramine-induced rats
T1 sequence (P51639 1-887): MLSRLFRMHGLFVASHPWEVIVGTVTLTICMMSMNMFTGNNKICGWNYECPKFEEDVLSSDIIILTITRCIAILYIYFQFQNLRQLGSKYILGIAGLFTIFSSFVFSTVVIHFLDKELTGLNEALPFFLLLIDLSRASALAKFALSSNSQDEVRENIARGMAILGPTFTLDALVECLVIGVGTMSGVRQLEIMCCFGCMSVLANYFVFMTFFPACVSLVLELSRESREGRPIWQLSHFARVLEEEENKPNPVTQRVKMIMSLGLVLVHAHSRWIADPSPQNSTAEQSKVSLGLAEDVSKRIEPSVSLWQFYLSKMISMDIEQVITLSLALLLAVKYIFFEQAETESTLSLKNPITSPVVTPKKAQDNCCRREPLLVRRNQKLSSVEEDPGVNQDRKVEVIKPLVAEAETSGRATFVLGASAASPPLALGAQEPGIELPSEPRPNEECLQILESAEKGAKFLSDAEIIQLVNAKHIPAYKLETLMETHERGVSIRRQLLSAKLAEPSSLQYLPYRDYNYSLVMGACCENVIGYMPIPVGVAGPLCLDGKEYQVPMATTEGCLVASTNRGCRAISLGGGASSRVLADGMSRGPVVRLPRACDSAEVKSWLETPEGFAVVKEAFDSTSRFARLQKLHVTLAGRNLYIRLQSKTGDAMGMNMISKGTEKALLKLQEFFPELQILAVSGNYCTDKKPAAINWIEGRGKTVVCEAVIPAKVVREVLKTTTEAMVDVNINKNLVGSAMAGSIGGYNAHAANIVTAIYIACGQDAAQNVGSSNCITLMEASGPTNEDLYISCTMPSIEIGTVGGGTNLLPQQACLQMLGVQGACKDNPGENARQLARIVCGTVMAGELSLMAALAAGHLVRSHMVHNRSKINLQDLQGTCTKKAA
Method: 1. HMG CoA reductase activity in enzyme preparations
The HMG-CoA reductase activity was measured on solubilized enzyme preparations from liver microsomes from rats which, after a changeover in the day/night rhythm, had been induced with cholestyramine (®Cuemid).
The substrate used was (S,R) ^14 C-HMG-CoA, and the concentration of NADPH was maintained constant during the incubation by a regenerating system. ^14 C-Mevalonate was separated from the substrate and other products (e.g. ^14 C-HMG) by column elution, with the elution profile of each individual sample being determined.
Permanent inclusion of ^3 H-mevalonate was dispensed with because the determination was for relative data on the inhibitory effect. In each test series the enzyme-free control, the enzyme-containing normal mixture (=100%) and those with added product, final concentration 10^-5 to 10^-9 M, were treated together. Each individual value was formed as the mean of 3 parallel samples. The significance of the differences between means for product-free and product-containing samples was assessed using the t test.
The method described above was used to measure, for example, the following figures for the inhibition of HMG-CoA reductase by the compounds according to the invention [IC50 /mol/liter means the molar concentration of the compound per liter necessary for 50% inhibition]: […]

[1] = system: cholesterol biosynthesis (in HEP-G2 cells); assay: Suppression or inhibition of HMG-CoA reductase in cell cultures of HEP-G2 cells: inhibition of cholesterol biosynthesis from 14C-acetate; type: cell-based; conditions: Homo sapiens, HepG2, monolayers, e.g. 1 hour preincubation, 3 hours with sodium 14C-acetate, Table 2
Method: 2. Suppression or inhibition of HMG-CoA reductase in cell cultures of HEP-G2 cells
Monolayers of HEP-G2 cells in the lipoprotein-free nutrient medium were preincubated with appropriate concentrations of the test substances for a defined time (for example 1 hour) and, after addition of the labeled precursor, for example sodium ^14 C-acetate, the incubation was continued (for example for 3 hours). An internal standard (^3 H-cholesterol) was added and then a portion of the cells underwent alkaline hydrolysis. The lipids from the hydrolyzed cells were extracted with chloroform/methanol. After addition of carrier cholesterol to this lipid mixture it was subjected to preparative thin-layer chromatography, the cholesterol band was visualized with iodine vapor and then isolated, and the amount of ^14 C-cholesterol formed from the ^14 C-precursor was determined by scintigraphy. Cell protein was determined in an aliquot of the cells so that it is possible to calculate the amount of ^14 C-cholesterol formed per unit time and per mg of cell protein. The inhibitory effect of the particular test product on the cholesterol biosynthesis by HEP-G2 cell cultures was obtained by comparing this figure with the amount of ^14 C-cholesterol formed per mg of cell protein and unit time in a culture treated in the same way but free of test substance.
Examination of substances for inhibition of cholesterol biosynthesis
in confluent cell cultures (monolayers) of HEP-G2 cells
The method described above was used to measure, for example, the following figures for the inhibition of cholesterol biosynthesis (in HEP-G2 cells) by the compounds according to the invention (the IC50 /mol/liter is that concentration of the compound which brings about 50% inhibition of cholesterol biosynthesis) (Tab. 2).

cholesterol = conditions: rats; cited from earlier work

| SMILES | IC50 (HMG-CoA reductase) [nM] | IC50 [1] [nM] | cholesterol-lowering action (cholesterol) |
| --- | --- | --- | --- |
| CC(O)(CC(=O)O)CC(=O)O [3-Hydroxy-3-methylglutaric acid] |  |  | significant cholesterol-lowering action |
| CC(C)c1nc(-c2ccccc2)cc(-c2ccc(F)cc2)c1/C=C(\F)[C@@H](O)C[C@@H](O)CC(=O)O [11 b] |  | 20 |  |
| CC(C)c1nc(-c2ccc(F)cc2)nc(-c2ccc(F)cc2)c1C=C(F)C(O)CC(O)CC(=O)O (stereo not drawn) [11 a] |  | 18 |  |

The next lines start with results.

| IC50 (HMG-CoA reductase) [nM] | SMILES | IC50 [1] [nM] | cholesterol-lowering action (cholesterol) |
| --- | --- | --- | --- |
| 2.9 | CC(C)c1nc(-c2ccc(F)cc2)nc(-c2ccc(F)cc2)c1/C=C(\F)[C@@H]1C[C@@H](O)CC(=O)O1 [10 a] | 19 |  |
| 1.8 | CC(C)c1nc(-c2ccc(F)cc2)c(/C=C(\F)[C@@H]2C[C@@H](O)CC(=O)O2)c(C(C)C)n1 [10 g] | 2.5 |  |
| 9 | CC(C)c1nc(-c2ccccc2)cc(-c2ccc(F)cc2)c1/C=C(\F)[C@@H]1C[C@@H](O)CC(=O)O1 [10 b] | 4.6 |  |
